From patent US8748170B2, “Polypeptides derived from cyclin B1 and uses thereof” (priority 2008, dated 2014)

Each sequence was assayed on CD4+T cells (assay: CFSE dilution proliferation of CD4+ T cells in PBMC of heavy smokers). Settings: PBMC from 5 heavy smokers negative for lung cancer by CT; peptide approximately 2 μg/ml; 6 days; one or more of the peptides.
Format: cell-based, human
From the text: The amino acid sequence of the whole CB1 protein was synthesized as a series of peptides (generally 12-15 amino acids in length) that overlap by 11 amino acids (each peptide is offset by 4 amino acids). This approach is used when HLA of the subjects being tested is unknown and when there is a potential for multiple reactive peptides restricted by a variety of HLA molecules. It is also useful when the blood collection volumes are too small for dendritic cell generation, and other antigen presenting cells in the peripheral blood are counted on to present peptides without the need for further antigen processing.
Peripheral blood was collected into vaccutainers containing heparin sulfate and processed to obtain peripheral blood mononuclear cells (PBMC) by density centrifugation. PBMC were washed in PBS and labeled with 5 μM CFSE (Invitrogen) in warmed 0.1% FBS in PBS for 10 minutes at 37° C. The CFSE was quenched with 3 volumes of ice cold complete RPMI and incubated for 5 minutes before washes with complete RPMI. PBMC were then resuspended in media containing anti-CD28 and anti-CD49d antibodies for additional costimualtion. Wells coated with anti-CD3 were used as positive controls. Peptides were added at approximately 2 μg/ml. No peptide was added to negative control wells. After 6 days, cells were stained for cell surface markers and tested for proliferation by CFSE dilution using flow cytometry. Peptides that induced proliferation above that seen in the wells receiving no peptides were considered to be stimulatory.

Sequence	CD4+ T cell proliferation in response to peptide, above background (no peptide)
MYMTVSIIDRFM [Pep63, cyclin B1 amino acids 223-234]	show proliferation
LQETMYMTVSIIDRF [Pep62, cyclin B1 amino acids 219-233]	show proliferation
KFRLLQETMYMTVSI [Pep61, cyclin B1 amino acids 215-229]	show proliferation
